According to patent publication US20080167358A1, “Methods for Obtaining a Fast Dissolving Imidapril Powder” (priority 2005, published 2008):

Experiment: Dissolution time of a quantity corresponding to 75 mg of Imidapril in 30 ml of water at room temperature
Assay type: physicochemical
Settings: quantity of formulation corresponding to 75 mg of Imidapril added to 30 ml of stirred water at room temperature
Description: This crystalline condition makes it possible to obtain a quick dissolution Imidapril powder, i.e., having a total dissolution time of the powder of 30 sec for a quantity of 75 mg of Imidapril in 30 ml of water at room temperature (25° C.). […] The apparent dissolution time is noted.

For CCOC(=O)[C@H](CCc1ccccc1)N[C@@H](C)C(=O)N1C(=O)N(C)C[C@H]1C(=O)O [Standard Imidapril, Imidapril], the “Time (s) (apparent dissolution time)” value was 420 s.
